The record followed here is patent US20240043531A1, “ANTI-CD47 MONOCLONAL ANTIBODY AND USE THEREOF” (Akeso Biopharma, Inc., priority 2021, published 2024).

Test [1] has as its system acute myelocytic leukemia (AML) HL-60 cells. The test is described as follows: ADCP: phagocytosis of HL-60 cells by HPMMs, combination with azacitidine. The note with it: HPMMs effector, HL-60 target cells treated with azacitidine 3 μM or 1 μM for 24 h; antibodies 10 μg/mL and 1 μg/mL; FIG. 2. The format is cell-based, human. From the text: (§1) Materials: Azacitidine (purchased from Baxter Oncology GmbH); Hu5F9-G4 (supplied by Akeso Biopharma, Inc.); Raji cells (Chinese Academy of Sciences Shanghai Branch); HL-60 cells (ATCC); RPMI 1640 (Gibco, Cat. No: 22400-105); pancreatin (0.25% Typsin-EDTA (1×)) (Gibco, Cat. No: 25200072); fetal bovine serum (FBS; Excell bio, Cat. No: FSP500); fluorescent dye […] diacetatesuccinimidyl ester (CFSE; Biolegend, Cat. No: 423801); recombinant human macrophage colony-stimulating factor (human M-CSF; PeproTech, Cat. No: 300-25); APC anti-human CD11c antibody (Biolegend, Cat. No: 301614); isotype control (human IgG4; supplied by Akeso Biopharma, Inc.); rituximab (Roche); BSA (Sigma, Cat. No: V900933-1KG); Ficoll paque plus (GE, Cat. No: 17-1440-02). Human peripheral monocyte-derived macrophages (HPMMs) were prepared by inducing PBMCs. Frozen PBMCs were conventionally thawed and incubated in an incubator overnight. […]
Procedures: HL-60 cells were conventionally collected and plated in a 6-well plate at 4×10^5 cells/2 mL of 1640 complete medium per well. […] The next day, the treated and blank HL-60 cells were collected, centrifuged at 170×g for 5 min, resuspended and counted. Then the cells were analyzed for viability and washed once with PBS. […]

The test system of test [2] is human ovarian cancer SK-OV-3 cells. The test is described as follows: Immune cell activation: PBMCs with Raji-PDL1 and SK-OV-3 cells, cytokine ELISA. The note with it: SEB-activated PBMCs + Raji-PDL1 + SK-OV-3 cells, 3 days; FIG. 5. The format is cell-based. A general note: In an ELISA, binding on a coated surface is turned into a signal by an enzyme label.
In test [3] the test system is human prostate cancer LNCAP cells. The test is described as follows: Immune cell activation: PBMCs with Raji-PDL1 and LNCAP cells, cytokine ELISA. The format is cell-based. As to conditions: SEB-activated PBMCs + Raji-PDL1 + LNCAP cells, 3 days; FIG. 6.
For test [4], the system named is human lung adenocarcinoma A549 cells. The test is described as follows: Immune cell activation: PBMCs with Raji-PDL1 and A549 cells, cytokine ELISA. The format is cell-based. As to conditions: SEB-activated PBMCs + Raji-PDL1 + A549 cells, 3 days; FIG. 4.
Test [5] concerns Burkitt's lymphoma Raji cells. The test is described as follows: ADCP: phagocytosis of Raji cells by HPMMs, combination with rituximab. As to conditions: HPMMs effector, Raji target cells, 37° C. 2 h, flow cytometry; FIG. 1. The format is cell-based, human.
From the text: as §1, with “overnight. The next day, PBMCs were collected, centrifuged at 170×g for 5 min, resuspended in a 1640 medium containing 2% FBS, and incubated in an incubator for 2 h.” for “overnight.”
Procedures: Raji cells in the logarithmic phase were conventionally collected, centrifuged at 170×g for 5 min, resuspended and then washed once with PBS. […] 200 μL of 1% PBSA was added to each tube for resuspension, and the cells were detected on an FACS Calibur flow cytometer. […]
Background: A flow cytometer gives signals particle by particle.

Test [6] concerns the target T1, CD47 IgV TEV-His (human CD47 mature peptide of positions 19-141 of NP_942088.1, TEV, his tag fusion protein) (human, UniProt Q08722 19-141).
T1 construct: range 19-141; Synthesized by Akeso Biopharma; not shown: his tag
Description: indirect ELISA screening with CD47 IgV TEV-His as antigen. From the text: Spleen cells of immunized mice were fused with myeloma cells of the mice to prepare hybridoma cells.

Test [7] deals with T2, CD47 IgV TEV-His / human SIRPαECD-hFc-Biotin (Homo sapiens, UniProt Q08722).
T2 construct: human CD47 mature peptide of positions 19-141 of GenbankID: NP 942088.1; His tag (C); host or cells: mammalian cell expression system (said in general terms, for CD47 only)
The test is described as follows: Competitive ELISA against receptor SIRPα ECD-hFc-Biotin for binding to CD47. From the text:
(§2) The antigen used for preparing the anti-CD47 antibody with the hybridoma cell line 6F7 was CD47 IgV TEV-His (including human CD47 mature peptide of positions 19-141 of GenbankID: NP 942088.1 and TEV (amino acid sequence: ENLYFQG, SEQ ID NO: 74)-his tag fusion protein, synthesized by Akeso Biopharma, Inc.) and 3T3-CD47 cells (NIH/3T3, manufacturer: ATCC, Cat. No: CRL-1658; the human CD47 mature peptide was transfected into the cells on the basis of NIH/3T3 to construct a cell line stably expressing 3T3-CD47). Spleen cells of immunized mice were fused with myeloma cells of the mice to prepare hybridoma cells. […] The hybridoma cells obtained by ELISA screening were screened by competitive ELISA to obtain a hybridoma cell line capable of secreting a monoclonal antibody capable of competing for binding to CD47 IgV TEV-His with the receptor human SIRPαECD-hFc-Biotin (SIRPαECD refers to the extracellular region of SIRPα, positions 31-373 of protein GenBank ACCESSION No. NP_542970.1; hFc refers to a human IgG Fc purification label, specifically to Ig gamma-1 chain C region, positions 114-330 of GenbankID: P01857), which was then subjected to dilution cloning to obtain a stable hybridoma cell line. The hybridoma cell line was designated hybridoma cell line LT012, and the monoclonal antibody secreted by the cell line was designated 6F7.

The next test deals with T3, CD47 IgV TEV-His (Homo sapiens, UniProt Q08722).
T3 construct: human CD47 mature peptide of positions 19-141 of GenbankID: NP 942088.1; His tag (C); host or cells: mammalian cell expression system (said in general terms)
The test is described as follows: Indirect ELISA screening for antibodies specifically binding CD47. As to conditions: monoclonal antibody secreted by hybridoma LT012.
From the text: as §2

For the molecule `Nc1ncn([C@@H]2O[C@H](CO)[C@@H](O)[C@H]2O)c(=O)n1` [azacitidine], in test [1], the “phagocytic index (ADCP)” value is “significantly higher than those of the blank control and the isotype control (human IgG4)”.
With “penpulimab: anti-PD-1 antibody; heavy chain SEQ ID NO: 82, light chain SEQ ID NO: 84 [reference compound]”, the “secretion of IL-2 by PBMC cells” value in test [2] and in test [3] was “can significantly stimulate the secretion of IL-2” throughout. In addition, the “secretion of IFN-γ by PBMC cells” value in test [4] is on record as “can significantly stimulate the secretion of IFN-γ”.
As for “rituximab: anti-human CD20 antibody (Roche) [reference compound]”, in test [5], the “phagocytic index (ADCP)” value is “significantly higher than those of the blank control and the isotype control (human IgG4)”.

B1: anti-CD47 monoclonal antibody 6F7 (secreted by hybridoma cell line LT012) (antibody, V domains shown)
VH: QVQLQQPGAELVRPGASVKLSCKASGYTFTSYWMNWVKQRPGQGLEWIGMIDPSDSETHNNQMFKDKATLTVDKSSNTAYMHLSSLTSEDSAVYHCARLYRWYFDVWGAGTTVTVSS
VL: NIVMTQSPKSMSMSLGERVTLSCKASEIVGTYVSWFQQKPHQSPKLLIYGASNRYTGVPDRFTGSGSATDFTLTISNVQAEDLADYHCGQSYNFPYTFGGGTKLEIK
notes: Murine hybridoma antibody; also called CD47-6F7; LT012 antibody
Turning to B1, the binding result in test [6] is “binds”.

B2: 6F7: murine anti-CD47 monoclonal antibody secreted by hybridoma LT012; VH SEQ ID NO: 2, VL SEQ ID NO: 4 (antibody, V domains shown)
VH: QVQLQQPGAELVRPGASVKLSCKASGYTFTSYWMNWVKQRPGQGLEWIGMIDPSDSETHNNQMFKDKATLTVDKSSNTAYMHLSSLTSEDSAVYHCARLYRWYFDVWGAGTTVTVSS
VL: NIVMTQSPKSMSMSLGERVTLSCKASEIVGTYVSWFQQKPHQSPKLLIYGASNRYTGVPDRFTGSGSATDFTLTISNVQAEDLADYHCGQSYNFPYTFGGGTKLEIK
modifications: Synthetic artificial sequence-Amino acid sequence of the heavy chain variable region of 6F7; Synthetic artificial sequence-Amino acid sequence of the variable region of the light chain of 6F7
For B2, in test [7], the “competition with SIRPα ECD-hFc-Biotin for binding to CD47” value is given as “can compete with the receptor SIRPα ECD-hFc-Biotin for binding to CD47”. For the same molecule, in the test with CD47 IgV TEV-His, the “specific binding to CD47” value is reported as “capable of specifically binding to CD47”.
